Measured values as given in BindingDB's records for doi:10.3109/14756366.2012.663363 (Sun Yat-Sen University, 2013).

What was measured:
Acetylcholinesterase = Acetylcholinesterase (Electrophorus electricus, UniProt O42275); experiment: In Vitro AChE and BuChE Inhibition Assays; settings: pH 8
Method: (§1) Enzyme solutions were prepared to give 2 units/mL in 2 mL aliquots. […] The substrate was added to the assay medium containing enzyme, buffer and DTNB with inhibitor after 15 min of incubation time.

[1] = target: Carboxylic ester hydrolase (Equus caballus, UniProt Q9N1N9); experiment: In Vitro AChE and BuChE Inhibition Assays; settings: pH 8
Method: as §1

Carboxylic ester hydrolase, sequence (Q9N1N9 whole entry): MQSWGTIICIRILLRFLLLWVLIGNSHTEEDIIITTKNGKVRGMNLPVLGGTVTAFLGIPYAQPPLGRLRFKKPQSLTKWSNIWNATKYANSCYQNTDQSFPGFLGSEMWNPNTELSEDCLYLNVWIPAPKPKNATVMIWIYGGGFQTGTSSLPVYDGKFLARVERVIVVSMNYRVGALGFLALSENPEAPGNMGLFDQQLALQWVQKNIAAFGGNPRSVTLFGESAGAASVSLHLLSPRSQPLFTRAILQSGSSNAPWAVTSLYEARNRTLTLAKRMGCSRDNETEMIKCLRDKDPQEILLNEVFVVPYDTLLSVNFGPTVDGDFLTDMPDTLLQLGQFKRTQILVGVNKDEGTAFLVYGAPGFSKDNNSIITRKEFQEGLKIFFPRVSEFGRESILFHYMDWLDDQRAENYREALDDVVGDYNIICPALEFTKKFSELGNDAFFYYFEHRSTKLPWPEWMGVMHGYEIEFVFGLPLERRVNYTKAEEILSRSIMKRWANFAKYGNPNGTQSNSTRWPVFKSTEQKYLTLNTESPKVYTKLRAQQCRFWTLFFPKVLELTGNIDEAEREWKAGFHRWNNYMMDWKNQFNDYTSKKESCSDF
Acetylcholinesterase, sequence (O42275 whole entry): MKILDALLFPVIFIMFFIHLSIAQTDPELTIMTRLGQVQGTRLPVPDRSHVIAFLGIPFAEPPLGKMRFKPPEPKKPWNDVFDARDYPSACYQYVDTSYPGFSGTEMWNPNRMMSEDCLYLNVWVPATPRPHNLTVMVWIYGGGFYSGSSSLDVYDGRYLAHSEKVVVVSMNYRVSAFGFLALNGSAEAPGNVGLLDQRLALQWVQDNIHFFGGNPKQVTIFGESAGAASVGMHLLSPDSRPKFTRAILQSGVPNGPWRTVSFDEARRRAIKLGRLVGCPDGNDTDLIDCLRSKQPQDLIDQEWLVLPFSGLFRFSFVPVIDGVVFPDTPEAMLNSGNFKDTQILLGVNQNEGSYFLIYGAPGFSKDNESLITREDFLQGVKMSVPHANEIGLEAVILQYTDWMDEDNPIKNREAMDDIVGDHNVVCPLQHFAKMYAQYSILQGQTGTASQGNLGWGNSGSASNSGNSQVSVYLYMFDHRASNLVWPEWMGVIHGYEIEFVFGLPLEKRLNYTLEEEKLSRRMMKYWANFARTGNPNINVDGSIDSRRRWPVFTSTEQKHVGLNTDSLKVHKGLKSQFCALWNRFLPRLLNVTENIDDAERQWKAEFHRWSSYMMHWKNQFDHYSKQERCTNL

Structure (SMILES) | IC50 (Acetylcholinesterase) | IC50 [1]
O=C(CCN1CCOCC1)Nc1ccc2nc(-c3cc4ccccc4[nH]3)[nH]c(=O)c2c1 [N-(2-(1H-indol-2-yl)-4-oxo-3,4-dihydroquinazolin-6-yl)-3-morpholinopropanamide (3i)] | 1.26 µM | 51.6 µM
CN1CCN(CCC(=O)Nc2ccc3nc(-c4cc5ccccc5[nH]4)[nH]c(=O)c3c2)CC1 [N-(2-(1H-indol-2-yl)-4-oxo-3,4-dihydroquinazolin-6-yl)-3-(4-methylpiperazin-1-yl)propanamide (3j)] | > 10 µM | > 10 µM
CCN(CC)CC(=O)Nc1ccc2nc(-c3cc4ccccc4[nH]3)[nH]c(=O)c2c1 [N-(2-(1H-indol-2-yl)-4-oxo-3,4-dihydroquinazolin-6-yl)-2-(diethylamino)acetamide (3a)] | 0.503 µM | 14.8 µM
O=C(CCN1CCCC1)Nc1ccc2nc(-c3cc4ccccc4[nH]3)[nH]c(=O)c2c1 [N-(2-(1H-indol-2-yl)-4-oxo-3,4-dihydroquinazolin-6-yl)-3-(pyrrolidin-1-yl)propanamide (3g)] | 0.1 µM | 0.403 µM
CCN(CC)CCCNc1nc(-c2cc3ccccc3[nH]2)nc2ccccc12 [N1-(2-(1H-indol-2-yl)quinazolin-4-yl)-N3,N3-diethylpropane-1,3-diamine (9b)] | > 10 µM | > 10 µM
O=C(CN1CCOCC1)Nc1ccc2nc(-c3cc4ccccc4[nH]3)[nH]c(=O)c2c1 [N-(2-(1H-indol-2-yl)-4-oxo-3,4-dihydroquinazolin-6-yl)-2-morpholinoacetamide (3d)] | 2.02 µM | 32.2 µM
O=c1[nH]c(-c2cc3ccccc3[nH]2)nc2ccccc12 [2-(2-Indolyl-)-4(3H)-quinazolines (2IQ)] | > 10 µM | > 10 µM
O=C(CN1CCCCC1)Nc1ccc2nc(-c3cc4ccccc4[nH]3)[nH]c(=O)c2c1 [N-(2-(1H-indol-2-yl)-4-oxo-3,4-dihydroquinazolin-6-yl)-2-(piperidin-1-yl)acetamide (3c)] | 0.148 µM | 10.2 µM
O=C(CCN1CCCCC1)Nc1ccc2nc(-c3cc4ccccc4[nH]3)[nH]c(=O)c2c1 [N-(2-(1H-indol-2-yl)-4-oxo-3,4-dihydroquinazolin-6-yl)-3-(piperidin-1-yl)propanamide (3h)] | 0.021 µM | 7.32 µM
O=C(CN1CCCC1)Nc1ccc2nc(-c3cc4ccccc4[nH]3)[nH]c(=O)c2c1 [N-(2-(1H-indol-2-yl)-4-oxo-3,4-dihydroquinazolin-6-yl)-2-(pyrrolidin-1-yl)acetamide (3b)] | 0.327 µM | 3.1 µM
CN(C)CCCNc1nc(-c2cc3ccccc3[nH]2)nc2ccccc12 [N1-(2-(1H-indol-2-yl)quinazolin-4-yl)-N3,N3-dimethylpropane-1,3-diamine (9a)] | > 10 µM | > 10 µM
CN1CCN(CC(=O)Nc2ccc3nc(-c4cc5ccccc5[nH]4)[nH]c(=O)c3c2)CC1 [N-(2-(1H-indol-2-yl)-4-oxo-3,4-dihydroquinazolin-6-yl)-2-(4-methylpiperazin-1-yl)acetamide (3e)] | > 10 µM | > 10 µM
CCN(CC)CCC(=O)Nc1ccc2nc(-c3cc4ccccc4[nH]3)[nH]c(=O)c2c1 [N-(2-(1H-indol-2-yl)-4-oxo-3,4-dihydroquinazolin-6-yl)-3-(diethylamino)propanamide (3f)] | 0.276 µM | 2.43 µM
